Marks after values point to notes of the source that are not given here. Bridges are numbered along the chain shown (N, C = ends). Where no end group is shown, it is not given here.
Legend:
HLA-A(*)02.01 molecules = HLA-A(*)02.01 molecules (Homo sapiens, UniProt P04439, D140Y/D185E/D98H/E176V/E277Q/G131W/G231S/I119V/I121R/I166T/I218V/L300P/L318F/N151K/N90K/P208A/P217A/Q86G/Q94H/R138H/R169H/T345S); experiment: T2-A2 HLA up-regulation test (HLA-A2.1 class I up-regulation, peptide binding); details: positive cut-off 287.116
Method: T2-A2, HLA up-regulation test: binding of the PTR-2 and PTR-4 peptides to HLA-A(*)02.01 molecules was evaluated by means of flow cytometry using T2 cells and the method described by Nijman et al. In this assay, increased stability (the accumulation of HLA-A(*)02.01 molecules on the surface of T2 cells as a consequence of peptide binding) is measured in terms of the increased binding of the antibody directed against HLA-A(*)02.01. Briefly, 10^6 T2 cells in serum-free IMDM were incubated overnight with escalating concentrations (0, 5, 25 and 50 μg/ml) of the PTR peptides in 24-well culture plates at 37° C. in an atmosphere containing 5% CO2. The cells were then washed two times with DPBS, and subsequently incubated for one hour with an anti-HLA-A(*)02.01 (A2.69) specific monoclonal antibody (A2.69, #189HA-1; One Lambda, Inc., Canoga Park, Calif.), using 10 μl of the recommended dilution per 10^6 cells. UPC-10 (Cappel/Organon Teknika Corp) was used as an isotype control. The cells were again washed two times with DPBS, incubated with 100 μl of a 1:100 dilution of fluorescein isothiocyanate (FITC)-labeled anti-mouse IgG (Becton Dickinson Corp.), and analyzed by means of FACScan and single-color analysis. The cells were kept at 4° C. during all of the manipulations unless otherwise stated.
Peptide selection and HLA-A(*)02.01 binding: In order to test the immunogenicity of PTH-rP protein and test possible tolerance of human T cell repertoire specific for it, the PTH-rP molecules were screened with the “Parker” algorithm (BIMAS) in order to predict peptides having high theoretical HLA-A(*)02.01 binding motifs. The functional binding of the two peptides to HLA-A(*)02.01 molecules was tested in vitro by means of the T2 test. PTH-rP peptides with similar or overlapping amino acid homology to the analogue sequences of parathyroid hormone (PTH) were cut out of the screening. The peptide sequences included in the first 36 amino acids (pro-peptide) were ignored although theoretically predicted with higher affinity for the HLA-A(*)02.01 molecule. […]

[1] = 0.1 mg sc. in the dorsal neck, after 6 hours, three mice

Substance	T2 binding (HLA-A(*)02.01 molecules; peptide 5 μg/ml)	T2 binding (HLA-A(*)02.01 molecules; peptide 25 μg/ml)	T2 binding (HLA-A(*)02.01 molecules; peptide 50 μg/ml)	Serum Ca (hypocalcemia induced by positive control) [1] [mmol/L]
YLSGANLNL [CAP-1]	240^d relative fluorescence values	352^e relative fluorescence values	502.9^f relative fluorescence values	–
Human synthetic thyreocalcitonin: Sigma-Aldrich # T3535, positive control capable to induce hypocalcemia (CGNLSTCMLGTYTQDFNKFHTFPQTAIGVGAP-NH2; disulfide 1-7; ends not checked; UniProt P01258 85-116, looked up)	–	–	–	0.64 ± 0.645
